In ChEMBL document CHEMBL4414628, “Engineering Fluorine into Verticillins (Epipolythiodioxopiperazine Alkaloids) via Precursor-Directed Biosynthesis” (J Nat Prod, 2019) one finds IC50 data, which are given here for eleven compounds.

One assay has as its system MDA-MB-231. Description: Antiproliferative activity against human MDA-MB-231 cells assessed as inhibition of cell growth incubated for 72 hrs by CellTiter 96 aqueous one solution assay. The class given is functional, cell-based. To be noted: MDA-MB-231, 72 h.
Another assay concerns MDA-MB-435. Description: Antiproliferative activity against human MDA-MB-435 cells assessed as inhibition of cell growth incubated for 72 hrs by CellTiter 96 aqueous one solution assay. To be noted: MDA-MB-435, 72 h. Type of assay: functional, cell-based.
A further assay has as its system OVCAR-3. Description: Antiproliferative activity against human OVCAR3 cells assessed as inhibition of cell growth incubated for 72 hrs by CellTiter 96 aqueous one solution assay. Type of assay: functional, cell-based. Conditions: OVCAR-3, 72 h.
In assay [1] the target is Histone-lysine N-methyltransferase 2A (Homo sapiens, UniProt Q03164). Description: Inhibition of human recombinant MLL1 using [3H]S-adenosyl-methionine as substrate.
Chain of Histone-lysine N-methyltransferase 2A (Q03164 1-2718 limits assumed): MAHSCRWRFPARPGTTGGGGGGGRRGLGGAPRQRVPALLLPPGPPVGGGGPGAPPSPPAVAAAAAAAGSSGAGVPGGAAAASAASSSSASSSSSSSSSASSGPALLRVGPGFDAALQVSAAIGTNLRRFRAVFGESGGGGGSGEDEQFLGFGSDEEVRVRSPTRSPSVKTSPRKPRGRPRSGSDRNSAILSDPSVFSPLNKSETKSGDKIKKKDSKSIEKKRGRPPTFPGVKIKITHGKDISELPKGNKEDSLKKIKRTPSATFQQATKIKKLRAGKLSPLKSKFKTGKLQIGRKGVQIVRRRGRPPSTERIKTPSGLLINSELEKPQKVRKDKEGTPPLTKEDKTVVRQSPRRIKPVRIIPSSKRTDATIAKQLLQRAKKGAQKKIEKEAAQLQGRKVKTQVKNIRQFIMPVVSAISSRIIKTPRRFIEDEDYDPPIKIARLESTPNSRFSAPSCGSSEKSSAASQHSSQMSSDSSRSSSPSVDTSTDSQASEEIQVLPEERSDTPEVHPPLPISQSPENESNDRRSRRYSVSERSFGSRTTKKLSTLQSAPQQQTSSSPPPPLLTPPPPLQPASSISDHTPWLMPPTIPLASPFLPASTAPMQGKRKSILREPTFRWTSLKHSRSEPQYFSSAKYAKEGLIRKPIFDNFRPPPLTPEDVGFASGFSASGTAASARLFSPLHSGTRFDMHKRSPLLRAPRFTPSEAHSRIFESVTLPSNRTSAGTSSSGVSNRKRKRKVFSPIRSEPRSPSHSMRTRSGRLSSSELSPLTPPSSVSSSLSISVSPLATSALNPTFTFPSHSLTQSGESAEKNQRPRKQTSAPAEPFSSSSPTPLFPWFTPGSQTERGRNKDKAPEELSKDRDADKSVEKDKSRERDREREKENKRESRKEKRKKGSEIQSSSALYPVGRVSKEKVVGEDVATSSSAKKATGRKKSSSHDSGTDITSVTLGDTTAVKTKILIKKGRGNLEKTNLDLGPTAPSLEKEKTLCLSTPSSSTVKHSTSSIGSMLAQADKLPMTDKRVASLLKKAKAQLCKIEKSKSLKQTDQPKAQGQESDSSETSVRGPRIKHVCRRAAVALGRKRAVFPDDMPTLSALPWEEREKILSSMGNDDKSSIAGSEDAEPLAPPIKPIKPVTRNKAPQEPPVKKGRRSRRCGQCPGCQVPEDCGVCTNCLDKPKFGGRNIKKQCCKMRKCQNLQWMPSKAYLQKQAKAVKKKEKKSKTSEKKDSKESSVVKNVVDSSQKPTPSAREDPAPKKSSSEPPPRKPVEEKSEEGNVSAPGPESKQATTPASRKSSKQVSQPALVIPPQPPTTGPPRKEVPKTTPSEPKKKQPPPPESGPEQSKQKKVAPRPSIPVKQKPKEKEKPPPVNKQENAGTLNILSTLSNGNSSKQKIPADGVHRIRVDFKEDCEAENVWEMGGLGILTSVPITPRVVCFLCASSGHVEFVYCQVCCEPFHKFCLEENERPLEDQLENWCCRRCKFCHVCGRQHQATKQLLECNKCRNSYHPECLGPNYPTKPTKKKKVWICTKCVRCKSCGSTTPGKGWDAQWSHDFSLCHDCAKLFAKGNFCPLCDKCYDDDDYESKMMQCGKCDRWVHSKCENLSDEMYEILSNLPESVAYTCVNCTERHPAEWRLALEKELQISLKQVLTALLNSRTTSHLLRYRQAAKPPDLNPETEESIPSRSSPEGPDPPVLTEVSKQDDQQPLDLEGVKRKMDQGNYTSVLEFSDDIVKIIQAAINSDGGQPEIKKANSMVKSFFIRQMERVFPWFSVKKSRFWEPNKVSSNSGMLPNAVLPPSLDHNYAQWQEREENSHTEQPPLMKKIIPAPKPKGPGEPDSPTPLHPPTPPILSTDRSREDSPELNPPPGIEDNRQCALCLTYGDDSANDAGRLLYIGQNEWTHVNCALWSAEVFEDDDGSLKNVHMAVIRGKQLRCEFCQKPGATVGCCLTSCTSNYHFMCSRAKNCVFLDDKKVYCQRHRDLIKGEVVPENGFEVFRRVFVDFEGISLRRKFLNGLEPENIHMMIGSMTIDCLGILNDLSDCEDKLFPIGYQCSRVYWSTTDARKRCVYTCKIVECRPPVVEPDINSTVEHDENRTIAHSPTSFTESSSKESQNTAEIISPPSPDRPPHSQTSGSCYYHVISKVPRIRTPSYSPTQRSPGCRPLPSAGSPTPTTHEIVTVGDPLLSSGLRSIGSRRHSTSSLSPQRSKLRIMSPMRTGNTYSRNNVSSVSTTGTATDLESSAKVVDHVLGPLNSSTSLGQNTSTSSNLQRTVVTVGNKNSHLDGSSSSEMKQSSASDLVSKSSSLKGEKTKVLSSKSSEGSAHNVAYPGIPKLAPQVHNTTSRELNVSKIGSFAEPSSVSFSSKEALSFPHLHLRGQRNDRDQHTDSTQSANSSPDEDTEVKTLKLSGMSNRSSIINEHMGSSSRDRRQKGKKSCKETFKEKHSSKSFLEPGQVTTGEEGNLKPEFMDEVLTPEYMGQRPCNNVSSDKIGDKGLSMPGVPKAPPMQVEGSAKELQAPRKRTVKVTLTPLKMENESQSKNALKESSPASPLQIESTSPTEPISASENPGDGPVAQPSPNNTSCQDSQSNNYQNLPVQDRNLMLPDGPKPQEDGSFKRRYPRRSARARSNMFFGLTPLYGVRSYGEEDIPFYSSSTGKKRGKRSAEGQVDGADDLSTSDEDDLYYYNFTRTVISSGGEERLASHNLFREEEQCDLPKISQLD
Chain of Histone-lysine N-methyltransferase 2A (Q03164 2719-3969 limits assumed): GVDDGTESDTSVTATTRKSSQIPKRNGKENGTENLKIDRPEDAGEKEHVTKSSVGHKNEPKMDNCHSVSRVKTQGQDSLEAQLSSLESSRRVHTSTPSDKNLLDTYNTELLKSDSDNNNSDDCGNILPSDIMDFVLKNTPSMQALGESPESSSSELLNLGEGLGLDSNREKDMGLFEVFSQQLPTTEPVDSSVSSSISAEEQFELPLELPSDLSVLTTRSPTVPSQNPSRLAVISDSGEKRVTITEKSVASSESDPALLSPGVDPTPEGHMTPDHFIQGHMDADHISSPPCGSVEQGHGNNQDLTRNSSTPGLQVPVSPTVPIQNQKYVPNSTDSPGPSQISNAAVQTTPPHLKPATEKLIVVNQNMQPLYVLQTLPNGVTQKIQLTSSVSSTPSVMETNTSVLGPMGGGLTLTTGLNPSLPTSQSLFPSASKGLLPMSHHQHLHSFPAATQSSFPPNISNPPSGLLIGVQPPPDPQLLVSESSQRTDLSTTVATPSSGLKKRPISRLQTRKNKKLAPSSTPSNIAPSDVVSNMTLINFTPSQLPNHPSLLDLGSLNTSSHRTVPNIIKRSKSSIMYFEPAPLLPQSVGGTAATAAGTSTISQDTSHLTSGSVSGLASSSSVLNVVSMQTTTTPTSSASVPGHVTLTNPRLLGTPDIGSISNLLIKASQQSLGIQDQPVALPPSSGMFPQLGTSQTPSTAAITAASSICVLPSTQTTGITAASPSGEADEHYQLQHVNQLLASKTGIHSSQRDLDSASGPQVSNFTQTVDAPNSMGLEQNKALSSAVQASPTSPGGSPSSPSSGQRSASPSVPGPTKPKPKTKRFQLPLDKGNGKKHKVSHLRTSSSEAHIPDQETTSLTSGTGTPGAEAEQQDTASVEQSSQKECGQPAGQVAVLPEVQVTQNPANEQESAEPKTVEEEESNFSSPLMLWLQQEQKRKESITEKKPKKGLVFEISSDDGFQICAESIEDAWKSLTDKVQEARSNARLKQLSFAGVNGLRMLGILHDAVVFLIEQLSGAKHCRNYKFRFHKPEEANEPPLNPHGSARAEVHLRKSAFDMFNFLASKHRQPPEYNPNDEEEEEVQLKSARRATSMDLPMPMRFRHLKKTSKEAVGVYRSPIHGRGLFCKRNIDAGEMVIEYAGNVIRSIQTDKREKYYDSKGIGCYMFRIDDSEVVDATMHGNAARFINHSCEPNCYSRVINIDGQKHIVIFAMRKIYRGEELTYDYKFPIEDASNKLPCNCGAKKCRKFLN

What is called IC50 is the concentration that inhibits the measured activity by half. Take `CC[C@@]12SS[C@]3(C(=O)N1C)[C@@H](O)[C@]1([C@@]45c6cc(F)ccc6N[C@@H]4N4C(=O)[C@]6(CC)SS[C@]4(C(=O)N6C)[C@H]5O)c4ccccc4N[C@@H]1N3C2=O`: the IC50 in the assay with MDA-MB-231 worked out at 0.046 µM; with MDA-MB-435 it was 0.049 µM; in the assay with OVCAR-3, 0.039 µM.

As for `CC[C@@]12SS[C@]3(C(=O)N1C)[C@@H](O)[C@]1([C@@]45c6cc(F)ccc6N[C@@H]4N4C(=O)[C@]6(CC)SS[C@]4(C(=O)N6C)[C@H]5O)c4cc(F)ccc4N[C@@H]1N3C2=O`, the IC50 in the assay with MDA-MB-231 came to 0.84 µM; with MDA-MB-435 it was 0.83 µM; in the assay with OVCAR-3, 0.92 µM.

As for `CC[C@@]12SS[C@]3(C(=O)N1C)[C@@H](O)[C@]1([C@@]45c6ccccc6N[C@@H]4N4C(=O)[C@]6(C)SS[C@]4(C(=O)N6C)[C@H]5O)c4ccccc4N[C@@H]1N3C2=O`, the IC50 in the assay on MDA-MB-231 stood at 0.022 µM; with MDA-MB-435, 0.03 µM; in the assay on OVCAR-3, 0.03 µM.

`CN1C(=O)[C@]23SS[C@@]1(C)C(=O)N2[C@H]1Nc2ccc(F)cc2[C@@]1([C@@]12c4cc(F)ccc4N[C@@H]1N1C(=O)[C@]4(C)SS[C@]1(C(=O)N4C)[C@H]2O)[C@@H]3O`: the IC50 with MDA-MB-231 is 0.059 µM; in the assay on MDA-MB-435, 0.065 µM; in the assay on OVCAR-3, 0.075 µM.

`CC[C@@]12SS[C@]3(C(=O)N1C)[C@@H](O)[C@]1([C@@]45c6cc(F)ccc6N[C@@H]4N4C(=O)[C@]6(C)SS[C@]4(C(=O)N6C)[C@H]5O)c4ccccc4N[C@@H]1N3C2=O`: the figures for the IC50 in the assay with MDA-MB-231, in the assay on MDA-MB-435 and in the assay with OVCAR-3 were 0.07 µM, 0.072 µM and 0.1 µM, respectively.

In the case of `CN1C(=O)[C@]23SS[C@@]1(C)C(=O)N2[C@H]1Nc2ccccc2[C@@]1([C@@]12c4ccccc4N[C@@H]1N1C(=O)[C@]4(C)SS[C@]1(C(=O)N4C)[C@H]2O)[C@@H]3O`, the IC50 in the assay with MDA-MB-231 is 0.043 µM; in the assay on MDA-MB-435, 0.037 µM; in the assay on OVCAR-3, 0.037 µM; in assay [1], 0.8 µM.

Consider `CC[C@@]12SS[C@]3(C(=O)N1C)[C@@H](O)[C@]1([C@@]45c6ccccc6N[C@@H]4N4C(=O)[C@]6(C)SS[C@]4(C(=O)N6C)[C@H]5O)c4cc(F)ccc4N[C@@H]1N3C2=O`, for which the half-maximal inhibitory concentration (IC50) in the assay on MDA-MB-231 was 0.037 µM; in the assay on MDA-MB-435, 0.039 µM; in the assay with OVCAR-3 it was 0.037 µM.

`CC[C@@]12SS[C@]3(C(=O)N1C)[C@@H](O)[C@]1([C@@]45c6ccccc6N[C@@H]4N4C(=O)[C@]6(CC)SS[C@]4(C(=O)N6C)[C@H]5O)c4ccccc4N[C@@H]1N3C2=O`: the IC50 with MDA-MB-231 was found to be 0.071 µM; in the assay with MDA-MB-435, 0.088 µM; with OVCAR-3, 0.1 µM.

Regarding `CC[C@@]12SS[C@]3(C(=O)N1C)[C@@H](O)[C@]1([C@@]45c6cc(F)ccc6N[C@@H]4N4C(=O)[C@]6(C)SS[C@]4(C(=O)N6C)[C@H]5O)c4cc(F)ccc4N[C@@H]1N3C2=O`, the IC50 in the assay with MDA-MB-231 was 0.11 µM; in the assay on MDA-MB-435, 0.13 µM; in the assay with OVCAR-3 it was 0.18 µM.

Turning to `CN1C(=O)[C@]23SS[C@@]1(C)C(=O)N2[C@H]1Nc2ccccc2[C@@]1([C@@]12c4cc(F)ccc4N[C@@H]1N1C(=O)[C@]4(C)SS[C@]1(C(=O)N4C)[C@H]2O)[C@@H]3O`, the IC50 in the assay with MDA-MB-231 is 0.23 µM; in the assay on MDA-MB-435 it was 0.24 µM; in the assay with OVCAR-3, 0.18 µM.

Regarding `CC(=O)O[C@H]1C(=O)[C@@]2(C)[C@H]([C@H](OC(=O)c3ccccc3)[C@]3(O)C[C@H](OC(=O)[C@H](O)[C@@H](NC(=O)c4ccccc4)c4ccccc4)C(C)=C1C3(C)C)[C@]1(OC(C)=O)CO[C@@H]1C[C@@H]2O` [PACLITAXEL], the IC50 turned out to be 0.17 µM in the assay with MDA-MB-231, 0.0004 µM with MDA-MB-435 and 0.005 µM with OVCAR-3.
